Measured values from patent US9540355B2, “Irciniastatin analogues” (priority 2013, dated 2017).

How the values were obtained:
H522-T1 = assay: Cell growth inhibition assay (CellTiter-Glo); assay type: cell-based, human; conditions: for IC50: Homo sapiens, 96 h, 4 days incubation; for Selectivity vs. IMR-90, H522-T1: ratio IC50[IMR-90]:IC50[tumor cell line]
Procedure: (§1) Cell Culture and Cell Growth Inhibition Assay.
(§2) The chosen cell lines are all human cancer cell lines except for the 4T1 murine breast cancer line, representing a wide variety of cancer types including breast (MDA-MB-453), kidney (A498), lung (H1975), pancreatic (PANC-1) and endometrial cancer (AN3CA, HEC-1A, and RL95-2), glioblastoma (U251 and U-87MG), melanoma (A2058 and LOXIMVI) and uterine sarcoma (MES-SA). All the cancer cell lines can be obtained from the American Type Culture Collection (ATCC, Manassas, Va., USA) with the exception of U251 which can be provided by the National Cancer Institute Tumor Repository (Frederick, Md.) and is cultured in the standard tissue culture media appropriate for each cell line. All the culture media are supplemented with 10% fetal bovine serum (FBS), 100 I.U./mL penicillin and 100 μg/mL streptomycin. For the cell growth inhibition assay, the cells are seeded in 96-well tissue culture plates at 500-3000 cells/well (seeding density empirically adjusted for each cell line based on growth rate optimization). The cells are allowed to attach for a minimum of 5 h prior to compound administration. The cells are incubated for a period of 4 days after compound addition. Following the incubation period, CellTiter-Glo reagent (Promega, Madison, Wis., USA) is added to all the wells to assess cell proliferation/viability. Luminescence is measured using an Envision microplate reader (Perkin Elmer, Waltham, Mass., USA). The IC50 values were calculated as the concentration which inhibited cell growth to 50% of DMSO control treated cell populations.

A2058 = assay: Cell growth inhibition assay (CellTiter-Glo); assay type: cell-based, human; conditions: for IC50: Homo sapiens, 96 h, 4 days incubation; for Selectivity vs. IMR-90, A2058: ratio IC50[IMR-90]:IC50[tumor cell line]
Procedure: as §1, §2

[1] = tested on: IMR-90 human fibroblast cells; assay: IMR-90 cytotoxicity assay; assay type: cell-based; conditions: IMR-90, 72 h, read-out: IC50 (nM) Quiescent IMP-90
From the text: IMR-90 Cytotoxicity Assay.
To evaluate the effect of compounds of the invention on non-proliferating normal cells, an in vitro cytotoxicity assay developed to distinguish between true antiproliferative activity and general cellular cytotoxicity unrelated to proliferation was used. Rudolph-Owen L A, Salvato K, Cheng C, Wu J, Towle M J and Littlefield B A: A 96-well plate cell-based assay to quantify undesired cytotoxic effects against quiescent non-dividing cells. Proc Amer Assoc Cancer Res 45: 264-265, 2004. In brief, IMR-90 human fibroblast cells, obtained from ATCC, were grown for 4 days to confluency in MEM containing 10% FBS and supplemented with L-glutamine, penicillin/streptomycin. After washing, the medium was replaced with complete MEM containing 0.1% FBS and the cells were cultured for 3 additional days to achieve complete quiescence. A compound of the invention or vehicle control was then added in the continued presence of 0.1% FBS, followed by incubation for 3 days at 37° C. Cell viability was assessed by the measurement of cellular ATPlevels using CellTiter-Glo reagent (Promega).

translation = conditions: in vitro assay; mean ± standard deviation; read-out: translation inhibition (EC50 nM) in vitro assay; cited from earlier work
Hela [2] = conditions: cell-based assay, read-out: translation inhibition (EC50 nM) cell-based assay Hela; cited from earlier work
SK-MEL-S [3] = conditions: cell-based assay, read-out: translation inhibition (EC50 nM) cell-based assay SK-MEL-S; cited from earlier work
SK-MEL-S [4] = conditions: read-out: cytotoxicity (IC50 nM) SK-MEL-S, CellTiter-Glo, mean ± standard deviation; cited from earlier work
Hela [5] = conditions: read-out: cytotoxicity (IC50 nM) Hela, CellTiter-Glo, mean ± standard deviation; cited from earlier work
HCT-116 = assay: Cell growth inhibition assay (CellTiter-Glo); assay type: cell-based, human; conditions: for IC50: Homo sapiens, 96 h, 4 days incubation; for Selectivity vs. IMR-90, HCT-116: ratio IC50[IMR-90]:IC50[tumor cell line]
Procedure: as §1, §2

[6] = tested on: P388 murine lymphocytic leukemia cell line; conditions: cited from earlier work
MCF-7 = conditions: breast MCF-7; cited from earlier work
SF-268 = conditions: CNS SF-268; cited from earlier work
DU-145 = conditions: prostate DU-145; cited from earlier work
BXPC-3 = conditions: pancreas BXPC-3; cited from earlier work
KM20L2 = conditions: colon KM20L2; cited from earlier work
NCI-H460 = conditions: lung NCI-H460; cited from earlier work
H226 = conditions: H226, lung; cited from earlier work
HOP62 = conditions: HOP62, lung; cited from earlier work
MKN45 = conditions: MKN45, gastric; cited from earlier work
SW620 = conditions: SW620, colon; cited from earlier work
NHDF = conditions: normal; cited from earlier work
PC3 = conditions: PC3, prostate; cited from earlier work
MB231 = conditions: MB231, breast; cited from earlier work
DU145 = conditions: DU145, prostate; cited from earlier work
ACHN = conditions: kidney; cited from earlier work

Compound	IC50 (H522-T1)	Selectivity vs. IMR-90, H522-T1 (H522-T1)	IC50 (A2058)	Selectivity vs. IMR-90, A2058 (A2058)	IC50 [1]	EC50 (translation)	EC50 (Hela [2])	EC50 (SK-MEL-S [3])	IC50 (SK-MEL-S [4])	IC50 (Hela [5])	other results
C=C(C)C[C@H](OC)[C@H](O)C(=O)N[C@@H](OC)[C@@H]1C/C(=N/OC)C(C)(C)[C@@H](C[C@H](O)[C@@H](C)[C@H]2Cc3c(C)c(O)cc(O)c3C(=O)O2)O1 (stereo in doubt) [C(11)-O-Methyloxime-Irciniastatin B]	0.8 nM	58	0.5 nM	92	46 nM	–	–	–	–	–	–
C=C(C)C[C@H](OC)[C@H](O)C(=O)N[C@@H](OC)[C@@H]1C[C@@H](O)C(C)(C)[C@@H](C[C@H](O)[C@@H](C)C2Cc3c(C)c(O)cc(O)c3C(=O)O2)O1 (stereo partly shown) [1a]	–	–	–	–	–	28 ± 7 nM	22 ± 1.4 nM	33 ± 10 nM	0.27 ± 0.04 nM	0.64 ± 0.14 nM	–
C=C(C)C[C@H](OC)[C@H](O)C(=O)N[C@@H](OC)[C@@H]1CC(=C)C(C)(C)[C@@H](C[C@H](O)[C@@H](C)[C@H]2Cc3c(C)c(O)cc(O)c3C(=O)O2)O1 [C(11)-Exomethylene-Irciniastatin B]	1.6 nM	31	0.7 nM	70	49 nM	–	–	–	–	–	IC50 (HCT-116): 1 nM; Selectivity vs. IMR-90, HCT-116 (HCT-116): 49
C=C(C)C[C@H](OC)[C@H](O)C(=O)N[C@@H](OC)[C@@H]1C[C@@H](OC(C)=O)C(C)(C)[C@@H](C[C@H](O)[C@@H](C)[C@H]2Cc3c(C)c(O)cc(O)c3C(=O)O2)O1 [C(11)-OAc-Irciniastatin A]	0.7 nM	39	0.4 nM	68	27 nM	–	–	–	–	–	IC50 (HCT-116): 2 nM; Selectivity vs. IMR-90, HCT-116 (HCT-116): 14
C=C(C)C[C@H](OC)[C@H](O)C(=O)N[C@@H](OC)[C@@H]1C[C@@H](OC(=O)c2ccccc2)C(C)(C)[C@@H](C[C@H](O)[C@@H](C)[C@H]2Cc3c(C)c(O)cc(O)c3C(=O)O2)O1 [C(11)-Obz-Irciniastatin A, C(11)-OBz-Irciniastatin A]	5.4 nM	15	2.7 nM	30	81 nM	–	–	–	–	–	–
C=C(C)C[C@H](OC)[C@H](O)C(=O)N[C@@H](OC)[C@@H]1CC(=O)C(C)(C)[C@@H](C[C@H](O)[C@@H](C)[C@H]2Cc3c(C)c(O)cc(O)c3C(=O)O2)O1 [Irciniastatin B, (−)-Irciniastatin B]	0.8 nM	71	0.5 nM	114	57 nM	–	–	–	–	–	Growth Inhibition of Cancer Cell Lines (GI50) [6]: 6 ng/mL; IC50 (HCT-116): 3 nM; Selectivity vs. IMR-90, HCT-116 (HCT-116): 19; Growth Inhibition of Cancer Cell Lines (GI50) (MCF-7): 0.5 ng/mL; Growth Inhibition of Cancer Cell Lines (GI50) (SF-268): 0.66 ng/mL; Growth Inhibition of Cancer Cell Lines (GI50) (DU-145): 1.6 ng/mL; Growth Inhibition of Cancer Cell Lines (GI50) (BXPC-3): 0.73 ng/mL; Growth Inhibition of Cancer Cell Lines (GI50) (KM20L2): 2.1 ng/mL; Growth Inhibition of Cancer Cell Lines (GI50) (NCI-H460): 1.2 ng/mL
C=C(C)C[C@@H](OC)[C@H](O)C(=O)N[C@@H](OC)[C@@H]1C[C@@H](O)C(C)(C)[C@@H](C[C@H](O)[C@@H](C)C2Cc3c(C)c(O)cc(O)c3C(=O)O2)O1 (stereo partly shown) [compound 3]	–	–	–	–	–	346 ± 64 nM	4950 ± 4870 nM	495 nM	352 ± 12.1 nM	614 ± 267 nM	–
C=C(C)C[C@H](OC)[C@H](O)C(=O)N[C@H](OC)[C@@H]1C[C@@H](O)C(C)(C)[C@@H](C[C@H](O)[C@@H](C)C2Cc3c(C)c(O)cc(O)c3C(=O)O2)O1 (stereo partly shown) [compound 4]	–	–	–	–	–	318 ± 182 nM	2200 ± 1410 nM	843 nM	763 ± 70 nM	> 1000 nM	–
C=C(C)C[C@H](OC)[C@H](O)C(=O)N[C@@H](OC)[C@@H]1C[C@@H](O)C(C)(C)[C@@H](C[C@H](O)COC)O1 [compound 5]	–	–	–	–	–	641 ± 262 nM	1650 ± 1060 nM	578 nM	> 1000 nM	> 1000 nM	–
C=C(C)C[C@H](OC)[C@H](O)C(=O)N[C@H](OC)[C@@H]1C[C@@H](O)C(C)(C)[C@@H](C[C@H](O)COC)O1 [compound 6]	–	–	–	–	–	> 10000 nM	> 10000 nM	> 10000 nM	> 1000 nM	> 1000 nM	–
Cc1c(O)cc(O)c2c1CC([C@H](C)[C@@H](O)C[C@H]1O[C@H](C(N)=O)C[C@@H](O)C1(C)C)OC2=O (stereo partly shown) [compound 7]	–	–	–	–	–	> 10000 nM	> 10000 nM	> 10000 nM	> 1000 nM	> 1000 nM	–
C=C1C[C@](OC)([C@H](O)C(=O)NC2OCO[C@H]3[C@@H]2O[C@H](C[C@H](O)CO)C(C)(C)[C@@H]3OC)O[C@H](C)[C@@H]1C (stereo partly shown) [compound 8]	–	–	–	–	–	238 ± 44 nM	59 ± 32 nM	64 nM	3.79 ± 0.04 nM	2.52 ± 1.39 nM	–
C[C@@H]1C[C@@H]([C@H](O)CC2CC(=O)NC(=O)C2)C(=O)[C@@H](C)C1 [cycloheximide]	–	–	–	–	–	3150 ± 2350 nM	3320 ± 434 nM	2670 nM	3130 ± 764 nM	2290 ± 1520 nM	–
C=C(C)C[C@H](OC)[C@H](O)C(=O)N[C@@H](OC)[C@@H]1C[C@H](O)C(C)(C)[C@@H](C[C@H](O)[C@@H](C)[C@H]2Cc3c(C)c(O)cc(O)c3C(=O)O2)O1 [epi-C(11)-Irciniastatin A]	0.9 nM	38	0.4 nM	85	34 nM	–	–	–	–	–	IC50 (HCT-116): 3 nM; Selectivity vs. IMR-90, HCT-116 (HCT-116): 11
C11-Deoxyirciniastatin [compound 29]	–	–	–	–	–	–	–	–	–	–	IC50 (H226): 0.034 ± 0.004 nM; IC50 (HOP62): 0.055 ± 0.002 nM; IC50 (MKN45): 0.076 ± 0.004 nM; IC50 (SW620): 0.16 ± 0.015 nM; IC50 (NHDF): 0.066 ± 0.004 nM; IC50 (PC3): 0.073 ± 0.006 nM; IC50 (MB231): 0.142 ± 0.007 nM; IC50 (DU145): 0.149 ± 0.005 nM; IC50 (ACHN): 0.265 ± 0.008 nM
